According to patent US10206394B2, “Herbicidal compounds” (Syngenta Participations AG, priority 2014, dated 2019):
Like-named read-outs stand apart in the source and are kept apart here.

Assays:
Test in all cases: Glasshouse assay for herbicidal activity (pre- and post-emergence), percentage phytotoxicity
Assay type in all cases: in vivo
[1] = system: Alopecurus myosuroides (ALOMY); conditions: Alopecurus myosuroides
How it was run: (§1)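 Pot-grown plants treated one day after sowing (pre-emergence) or at about 12 days (post-emergence); glasshouse at 24/18° C (warm) or 20/16° C (cool species) day/night, 16 h light, 65% humidity. Visual % phytotoxicity (0 = none, 100 = total damage) scored at 15 DAA post or 20 DAA pre.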

[2] = system: Avena fatua (AVEFA); conditions: Avena fatua
How it was run: as §1

[3] = system: Echinochloa crus-galli (ECHCG); conditions: Echinochloa crus-galli
How it was run: as §1

[4] = system: Lolium perenne (LOLPE); conditions: Lolium perenne
How it was run: as §1

[5] = post-emergence, 360 h, Rate 250 g/ha, post-emergence, visual assessment 15 DAA, 100%=total damage, 0%=no damage, read-out: Post-emergence herbicidal activity (percentage phytotoxicity) ALOMY POST
[6] = pre-emergence, 480 h, Rate 250 g/ha, pre-emergence, visual assessment 20 DAA, 100%=total damage, 0%=no damage, read-out: Pre-emergence herbicidal activity (percentage phytotoxicity) ALOMY PRE
[7] = post-emergence, 360 h, Rate 250 g/ha, post-emergence, visual assessment 15 DAA, 100%=total damage, 0%=no damage, read-out: Post-emergence herbicidal activity (percentage phytotoxicity) AVEFA POST
[8] = pre-emergence, 480 h, Rate 250 g/ha, pre-emergence, visual assessment 20 DAA, 100%=total damage, 0%=no damage, read-out: Pre-emergence herbicidal activity (percentage phytotoxicity) AVEFA PRE
[9] = post-emergence, 360 h, Rate 250 g/ha, post-emergence, visual assessment 15 DAA, 100%=total damage, 0%=no damage, read-out: Post-emergence herbicidal activity (percentage phytotoxicity) ECHCG POST
[10] = pre-emergence, 480 h, Rate 250 g/ha, pre-emergence, visual assessment 20 DAA, 100%=total damage, 0%=no damage, read-out: Pre-emergence herbicidal activity (percentage phytotoxicity) ECHCG PRE
[11] = post-emergence, 360 h, Rate 250 g/ha, post-emergence, visual assessment 15 DAA, 100%=total damage, 0%=no damage, read-out: Post-emergence herbicidal activity (percentage phytotoxicity) LOLPE POST
[12] = pre-emergence, 480 h, Rate 250 g/ha, pre-emergence, visual assessment 20 DAA, 100%=total damage, 0%=no damage, read-out: Pre-emergence herbicidal activity (percentage phytotoxicity) LOLPE PRE
[13] = post-emergence, 360 h, Rate 250 g/ha, post-emergence, assessed visually 15 DAA, 100%=total damage, 0%=no damage, read-out: Post-emergence herbicidal activity (percentage phytotoxicity) ALOMY POST
[14] = pre-emergence, 480 h, Rate 250 g/ha, pre-emergence, assessed visually 20 DAA, 100%=total damage, 0%=no damage, read-out: Pre-emergence herbicidal activity (percentage phytotoxicity) ALOMY PRE
[15] = post-emergence, 360 h, Rate 250 g/ha, post-emergence, assessed visually 15 DAA, 100%=total damage, 0%=no damage, read-out: Post-emergence herbicidal activity (percentage phytotoxicity) AVEFA POST
[16] = pre-emergence, 480 h, Rate 250 g/ha, pre-emergence, assessed visually 20 DAA, 100%=total damage, 0%=no damage, read-out: Pre-emergence herbicidal activity (percentage phytotoxicity) AVEFA PRE
[17] = post-emergence, 360 h, Rate 250 g/ha, post-emergence, assessed visually 15 DAA, 100%=total damage, 0%=no damage, read-out: Post-emergence herbicidal activity (percentage phytotoxicity) ECHCG POST
[18] = pre-emergence, 480 h, Rate 250 g/ha, pre-emergence, assessed visually 20 DAA, 100%=total damage, 0%=no damage, read-out: Pre-emergence herbicidal activity (percentage phytotoxicity) ECHCG PRE
[19] = post-emergence, 360 h, Rate 250 g/ha, post-emergence, assessed visually 15 DAA, 100%=total damage, 0%=no damage, read-out: Post-emergence herbicidal activity (percentage phytotoxicity) LOLPE POST
[20] = pre-emergence, 480 h, Rate 250 g/ha, pre-emergence, assessed visually 20 DAA, 100%=total damage, 0%=no damage, read-out: Pre-emergence herbicidal activity (percentage phytotoxicity) LOLPE PRE
[21] = post-emergence, 360 h, POST-emergence, rate 250 g/ha, visual score 15 DAA (100%=total damage, 0%=no damage), read-out: Post-emergence herbicidal activity (percentage phytotoxicity) ALOMY POST
[22] = pre-emergence, 480 h, PRE-emergence, rate 250 g/ha, visual score 20 DAA (100%=total damage, 0%=no damage), read-out: Pre-emergence herbicidal activity (percentage phytotoxicity) ALOMY PRE
[23] = post-emergence, 360 h, POST-emergence, rate 250 g/ha, visual score 15 DAA (100%=total damage, 0%=no damage), read-out: Post-emergence herbicidal activity (percentage phytotoxicity) AVEFA POST
[24] = pre-emergence, 480 h, PRE-emergence, rate 250 g/ha, visual score 20 DAA (100%=total damage, 0%=no damage), read-out: Pre-emergence herbicidal activity (percentage phytotoxicity) AVEFA PRE
[25] = post-emergence, 360 h, POST-emergence, rate 250 g/ha, visual score 15 DAA (100%=total damage, 0%=no damage), read-out: Post-emergence herbicidal activity (percentage phytotoxicity) ECHCG POST
[26] = pre-emergence, 480 h, PRE-emergence, rate 250 g/ha, visual score 20 DAA (100%=total damage, 0%=no damage), read-out: Pre-emergence herbicidal activity (percentage phytotoxicity) ECHCG PRE
[27] = post-emergence, 360 h, POST-emergence, rate 250 g/ha, visual score 15 DAA (100%=total damage, 0%=no damage), read-out: Post-emergence herbicidal activity (percentage phytotoxicity) LOLPE POST
[28] = pre-emergence, 480 h, PRE-emergence, rate 250 g/ha, visual score 20 DAA (100%=total damage, 0%=no damage), read-out: Pre-emergence herbicidal activity (percentage phytotoxicity) LOLPE PRE

SMILES	pest or weed control at 250 g/ha [1, 21] [%]	pest or weed control at 250 g/ha [1, 22] [%]	pest or weed control at 250 g/ha [2, 23] [%]	pest or weed control at 250 g/ha [2, 24] [%]	pest or weed control at 250 g/ha [3, 25] [%]	pest or weed control at 250 g/ha [3, 26] [%]	pest or weed control at 250 g/ha [4, 27] [%]	pest or weed control at 250 g/ha [4, 28] [%]	also measured
Cc1ccc(CNC(=O)CC2CC(=O)C(c3c(C)cc(-c4ncc(Cl)cn4)cc3C)C2=O)cc1 (centres unmarked) [Compound B355]	–	–	–	–	–	–	–	–	pest or weed control at 250 g/ha [1, 5]: 80%; pest or weed control at 250 g/ha [1, 6]: 50%; pest or weed control at 250 g/ha [2, 7]: 90%; pest or weed control at 250 g/ha [2, 8]: 70%; pest or weed control at 250 g/ha [3, 9]: 100%; pest or weed control at 250 g/ha [3, 10]: 90%; pest or weed control at 250 g/ha [4, 11]: 100%; pest or weed control at 250 g/ha [4, 12]: 70%
Cc1cc(-n2cc(Cl)cn2)cc(C)c1C1C(=O)CC(CC(=O)NCc2ccccn2)C1=O (centres unmarked) [Compound A71]	–	–	–	–	–	–	–	–	pest or weed control at 250 g/ha [1, 13]: 100%; pest or weed control at 250 g/ha [1, 14]: 80%; pest or weed control at 250 g/ha [2, 15]: 90%; pest or weed control at 250 g/ha [2, 16]: 80%; pest or weed control at 250 g/ha [3, 17]: 100%; pest or weed control at 250 g/ha [3, 18]: 90%; pest or weed control at 250 g/ha [4, 19]: 70%; pest or weed control at 250 g/ha [4, 20]: 60%
COc1ccc(CNC(=O)CC2CC(=O)C(c3c(C)cc(OCC(F)(F)F)cc3C)C2=O)cc1 (centres unmarked) [Compound B206]	90	80	90	70	90	90	90	80	–
C=CC(C)NC(=O)CC1CC(=O)C(c2c(C)cc(-c3ncc(F)cc3F)cc2C)C1=O (centres unmarked) [Compound B330]	100	100	100	100	100	100	100	100	–
CCNC(=O)CC1CC(=O)C(c2c(C)cc(-c3ccc(Cl)cn3)cc2C)C1=O (centres unmarked) [Compound B306]	100	100	100	100	100	100	100	100	–
Cc1cc(-c2ccc(F)cn2)cc(C)c1C1C(=O)CC(CC(=O)NCc2cccc(Br)c2)C1=O (centres unmarked) [Compound B384]	–	–	–	–	–	–	–	–	pest or weed control at 250 g/ha [1, 5]: 90%; pest or weed control at 250 g/ha [1, 6]: 80%; pest or weed control at 250 g/ha [2, 7]: 100%; pest or weed control at 250 g/ha [2, 8]: 80%; pest or weed control at 250 g/ha [3, 9]: 40%; pest or weed control at 250 g/ha [3, 10]: 90%; pest or weed control at 250 g/ha [4, 11]: 90%; pest or weed control at 250 g/ha [4, 12]: 80%
Cc1cnc(CNC(=O)CC2CC(=O)C(c3c(C)cc(-c4cncnc4)cc3C)C2=O)cn1 (centres unmarked) [Compound A147]	–	–	–	–	–	–	–	–	pest or weed control at 250 g/ha [1, 13]: 20%; pest or weed control at 250 g/ha [2, 15]: 20%; pest or weed control at 250 g/ha [3, 17]: 60%; pest or weed control at 250 g/ha [4, 19]: 0%
Cc1cc(C)c(C2C(=O)CC(CC(=O)N(C)CC(C)C)C2=O)c(C)c1 (centres unmarked) [Compound A159]	–	–	–	–	–	–	–	–	pest or weed control at 250 g/ha [1, 13]: 70%; pest or weed control at 250 g/ha [1, 14]: 60%; pest or weed control at 250 g/ha [2, 15]: 50%; pest or weed control at 250 g/ha [2, 16]: 20%; pest or weed control at 250 g/ha [3, 17]: 80%; pest or weed control at 250 g/ha [3, 18]: 90%; pest or weed control at 250 g/ha [4, 19]: 90%; pest or weed control at 250 g/ha [4, 20]: 90%
Cc1cc(Br)cc(C)c1C1C(=O)CC(CC(=O)NC(C)C)C1=O (centres unmarked) [Compound B140]	–	–	–	–	–	–	–	–	pest or weed control at 250 g/ha ([1]; post-emergence, 360 h, 250 g/ha, post-emergence, 15 DAA, visual assessment (100%=total damage, 0%=no damage), read-out: Post-emergence herbicidal activity (percentage phytotoxicity) ALOMY POST): 90%; pest or weed control at 250 g/ha ([1]; pre-emergence, 480 h, 250 g/ha, pre-emergence, 20 DAA, visual assessment (100%=total damage, 0%=no damage), read-out: Pre-emergence herbicidal activity (percentage phytotoxicity) ALOMY PRE): 90%; pest or weed control at 250 g/ha ([2]; post-emergence, 360 h, 250 g/ha, post-emergence, 15 DAA, visual assessment (100%=total damage, 0%=no damage), read-out: Post-emergence herbicidal activity (percentage phytotoxicity) AVEFA POST): 90%; pest or weed control at 250 g/ha ([2]; pre-emergence, 480 h, 250 g/ha, pre-emergence, 20 DAA, visual assessment (100%=total damage, 0%=no damage), read-out: Pre-emergence herbicidal activity (percentage phytotoxicity) AVEFA PRE): 80%; pest or weed control at 250 g/ha ([3]; post-emergence, 360 h, 250 g/ha, post-emergence, 15 DAA, visual assessment (100%=total damage, 0%=no damage), read-out: Post-emergence herbicidal activity (percentage phytotoxicity) ECHCG POST): 80%; pest or weed control at 250 g/ha ([3]; pre-emergence, 480 h, 250 g/ha, pre-emergence, 20 DAA, visual assessment (100%=total damage, 0%=no damage), read-out: Pre-emergence herbicidal activity (percentage phytotoxicity) ECHCG PRE): 70%; pest or weed control at 250 g/ha ([4]; post-emergence, 360 h, 250 g/ha, post-emergence, 15 DAA, visual assessment (100%=total damage, 0%=no damage), read-out: Post-emergence herbicidal activity (percentage phytotoxicity) LOLPE POST): 90%; pest or weed control at 250 g/ha ([4]; pre-emergence, 480 h, 250 g/ha, pre-emergence, 20 DAA, visual assessment (100%=total damage, 0%=no damage), read-out: Pre-emergence herbicidal activity (percentage phytotoxicity) LOLPE PRE): 90%
Cc1cc(-c2ncc(F)cn2)cc(C)c1C1C(=O)CC(CC(=O)NC/C=C/Cl)C1=O (centres unmarked) [Compound B302]	100	100	100	100	100	100	100	100	–
CC#Cc1cc(C)c(C2C(=O)CC(CC(=O)NCc3ccc(OC)cc3)C2=O)c(C)c1 (centres unmarked) [Compound B184]	90	90	90	90	100	100	90	100	–
CCc1cc(-n2cc(Cl)cn2)cc(C)c1C1C(=O)CC(CC(=O)NC(C)C)C1=O (centres unmarked) [Compound B235]	100	100	100	100	100	100	100	100	–
